Source: patent US20230233569A1 (Revolution Medicines, Inc., priority 2020, published 2023)

Key:
KRAS G13D = KRAS G13D (Homo sapiens, UniProt P01116+P62937, G13D); assay: Disruption of BRAF RBD interaction with Ras (FRET / MOA assay, with Cyclophilin A); assay type: biochemical; settings: KRAS G13D; read-out: KRAS G13D FRET data IC50
Procedure, shortened: (§1)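 Compound-driven ternary complex formation between nucleotide-loaded K-Ras and Cyclophilin A was measured as loss of BRAF RBD binding. Compounds (10-point 3-fold series, top 30 μM final) were incubated 3 h at 25 °C, then anti-His Eu-W1024 (10 nM) and anti-GST allophycocyanin (50 nM) added for 1.5 h. IC50 was taken from the TR-FRET ratio decrease versus DMSO.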

KRAS G12C = KRAS G12C (Homo sapiens, UniProt P01116+P62937, G12C); assay: as above; assay type: biochemical; settings: read-out: KRAS G12C FRET data, IC50
KRAS G12C, sequence (P01116 1-169 isoform P01116-2 G12C): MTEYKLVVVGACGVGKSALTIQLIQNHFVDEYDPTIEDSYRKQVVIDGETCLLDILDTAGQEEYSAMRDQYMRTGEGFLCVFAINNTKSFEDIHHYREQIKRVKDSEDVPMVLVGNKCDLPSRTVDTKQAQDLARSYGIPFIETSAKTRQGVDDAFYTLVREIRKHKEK
KRAS G12C, sequence (P62937 whole entry): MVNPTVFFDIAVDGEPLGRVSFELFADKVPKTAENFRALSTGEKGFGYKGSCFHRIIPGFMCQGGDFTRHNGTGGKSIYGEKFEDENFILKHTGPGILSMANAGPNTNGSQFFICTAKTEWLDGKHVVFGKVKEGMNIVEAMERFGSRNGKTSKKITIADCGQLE
Procedure, shortened: as §1

KRAS G12V = KRAS G12V (Homo sapiens, UniProt P01116+P62937, G12V); assay: as above; assay type: biochemical; settings: KRAS G12V; read-out: KRAS G12V FRET data IC50
KRAS G12V, sequence (P01116 1-169 isoform P01116-2 G12V limits assumed): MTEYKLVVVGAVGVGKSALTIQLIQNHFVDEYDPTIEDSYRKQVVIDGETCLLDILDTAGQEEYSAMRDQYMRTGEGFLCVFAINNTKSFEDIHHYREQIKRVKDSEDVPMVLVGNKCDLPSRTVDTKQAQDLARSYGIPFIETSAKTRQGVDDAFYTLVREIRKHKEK
KRAS G12V, sequence (P62937 whole entry): as the sequence (P62937 whole entry) above
Procedure, shortened: as §1

NRAS G12C = NRAS G12C (Homo sapiens, UniProt P01111+P62937, G12C); assay: as above; assay type: biochemical; settings: NRAS G12C; read-out: NRAS G12C FRET data IC50
NRAS G12C, sequence (P01111 whole entry G12C): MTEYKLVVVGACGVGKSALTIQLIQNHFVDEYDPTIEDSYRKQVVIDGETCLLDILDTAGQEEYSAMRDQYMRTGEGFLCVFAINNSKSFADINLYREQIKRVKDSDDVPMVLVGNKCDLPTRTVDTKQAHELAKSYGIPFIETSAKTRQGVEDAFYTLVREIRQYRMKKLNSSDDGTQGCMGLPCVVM
NRAS G12C, sequence (P62937 whole entry): as the sequence (P62937 whole entry) above

KRAS WT = KRAS WT (Homo sapiens, UniProt P01116+P62937); assay: as above; assay type: biochemical; settings: KRAS WT; read-out: KRAS WT FRET data IC50
KRAS WT, sequence (P01116 1-169 isoform P01116-2 limits assumed): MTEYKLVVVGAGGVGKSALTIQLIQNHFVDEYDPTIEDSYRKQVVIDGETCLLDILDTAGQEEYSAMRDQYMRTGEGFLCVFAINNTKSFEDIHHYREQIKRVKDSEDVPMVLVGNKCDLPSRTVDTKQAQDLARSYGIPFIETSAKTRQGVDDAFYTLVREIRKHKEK
KRAS WT, sequence (P62937 whole entry): as the sequence (P62937 whole entry) above
Procedure, shortened: as §1

KRAS G12S = KRAS G12S (Homo sapiens, UniProt P01116+P62937, G12S); assay: as above; assay type: biochemical; settings: read-out: KRAS G12S FRET data, IC50
KRAS G12S, sequence (P01116 1-169 isoform P01116-2 G12S limits assumed): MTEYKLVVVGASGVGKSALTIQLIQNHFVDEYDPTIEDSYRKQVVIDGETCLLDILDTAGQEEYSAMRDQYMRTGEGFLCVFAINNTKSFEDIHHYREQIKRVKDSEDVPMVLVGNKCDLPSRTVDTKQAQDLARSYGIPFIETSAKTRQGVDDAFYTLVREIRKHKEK
KRAS G12S, sequence (P62937 whole entry): as the sequence (P62937 whole entry) above
Procedure, shortened: as §1

KRAS G13C = KRAS G13C (Homo sapiens, UniProt P01116+P62937, G13C); assay: as above; assay type: biochemical; settings: read-out: KRAS G13C FRET data, IC50
KRAS G13C, sequence (P01116 1-169 isoform P01116-2 G13C): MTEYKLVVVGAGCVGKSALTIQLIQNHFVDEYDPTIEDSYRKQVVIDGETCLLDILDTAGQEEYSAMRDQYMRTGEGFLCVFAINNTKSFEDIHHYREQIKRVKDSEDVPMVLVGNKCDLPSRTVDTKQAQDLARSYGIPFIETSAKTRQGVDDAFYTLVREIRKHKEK
KRAS G13C, sequence (P62937 whole entry): as the sequence (P62937 whole entry) above
Procedure, shortened: as §1

KRAS G12D = KRAS G12D (Homo sapiens, UniProt P01116+P62937, G12D); assay: as above; assay type: biochemical; settings: read-out: KRAS G12D FRET data, IC50
KRAS G12D, sequence (P01116 1-169 isoform P01116-2 G12D limits assumed): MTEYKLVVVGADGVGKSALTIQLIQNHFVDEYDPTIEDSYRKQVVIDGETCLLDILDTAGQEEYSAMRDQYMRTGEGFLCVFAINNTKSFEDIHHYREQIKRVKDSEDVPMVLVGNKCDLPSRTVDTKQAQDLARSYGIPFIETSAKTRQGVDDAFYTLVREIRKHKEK
KRAS G12D, sequence (P62937 whole entry): as the sequence (P62937 whole entry) above
Procedure, shortened: as §1

NRAS Q61K = NRAS Q61K (Homo sapiens, UniProt P01111+P62937, Q61K); assay: as above; assay type: biochemical; settings: NRAS Q61K; read-out: NRAS Q61K FRET data IC50
NRAS Q61K, sequence (P01111 whole entry Q61K): as the sequence (P01111 whole entry G12C) above, with C12G, Q61K counted along it
NRAS Q61K, sequence (P62937 whole entry): as the sequence (P62937 whole entry) above
Procedure, shortened: (§2)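 TR-FRET in 25 mM HEPES pH 7.3, 100 mM NaCl, 5 mM MgCl2, 0.1% BSA: 25 μM Cyclophilin A, 12.5 nM His6-Ras-GMPPNP, 50 nM GST-BRAF RBD with compound (10-point 3-fold series from 30 μM), 3 h at 25° C. Anti-His Eu/anti-GST APC added, 1.5 h more; IC50 from decreased FRET ratio versus DMSO.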

NRAS WT = NRAS WT (Homo sapiens, UniProt P01111+P62937); assay: as above; assay type: biochemical; settings: NRAS WT; read-out: NRAS WT FRET data IC50
NRAS WT, sequence (P01111 whole entry): as the sequence (P01111 whole entry G12C) above, with C12G counted along it
NRAS WT, sequence (P62937 whole entry): as the sequence (P62937 whole entry) above
Procedure, shortened: as §2

NRAS Q61R = NRAS Q61R (Homo sapiens, UniProt P01111+P62937, Q61R); assay: as above; assay type: biochemical; settings: NRAS Q61R; read-out: NRAS Q61R FRET data IC50
NRAS Q61R, sequence (P01111 whole entry Q61R): as the sequence (P01111 whole entry G12C) above, with C12G, Q61R counted along it
NRAS Q61R, sequence (P62937 whole entry): as the sequence (P62937 whole entry) above
Procedure, shortened: as §2

KRAS Q61H = KRAS Q61H (Homo sapiens, UniProt P01116+P62937, Q61H); assay: as above; assay type: biochemical; settings: KRAS Q61H; read-out: KRAS Q61H FRET data IC50
KRAS Q61H, sequence (P01116 1-169 isoform P01116-2 Q61H limits assumed): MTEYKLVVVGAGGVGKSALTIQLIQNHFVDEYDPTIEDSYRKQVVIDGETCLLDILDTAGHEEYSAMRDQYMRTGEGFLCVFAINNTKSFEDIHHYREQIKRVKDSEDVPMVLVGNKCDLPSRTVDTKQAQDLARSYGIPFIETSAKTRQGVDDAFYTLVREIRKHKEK
KRAS Q61H, sequence (P62937 whole entry): as the sequence (P62937 whole entry) above
Procedure, shortened: as §2

Capan-1 (K-Ras G12V) = assay: CellTiter-Glo cell viability assay, 5-day treatment; assay type: cell-based; settings: Homo sapiens, CAPAN-1, 120 h, 5-day treatment; read-out: Capan-1 Cell Viability assay data (K-Ras G12V, IC50)
Procedure, shortened: (§3)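 Viability is read as luminescence on day 5 after direct compound addition to plated cells, following about 30 minutes' room-temperature equilibration. Each signal is scaled to mean DMSO as 100%.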

NCI-H358 (K-Ras G12C) = assay: as above; assay type: cell-based; settings: Homo sapiens, NCI-H358, 120 h, 5-day treatment; read-out: H358 Cell Viability assay data (K-Ras G12C, IC50)
Procedure, shortened: as §3

KRAS G13D, sequence (P01116 1-169 isoform P01116-2 G13D limits assumed): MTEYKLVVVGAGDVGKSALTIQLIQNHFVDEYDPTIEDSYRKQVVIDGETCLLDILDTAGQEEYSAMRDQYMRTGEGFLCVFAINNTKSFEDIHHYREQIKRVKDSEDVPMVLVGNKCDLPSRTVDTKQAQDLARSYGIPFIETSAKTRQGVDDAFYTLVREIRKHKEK
KRAS G13D, sequence (P62937 whole entry): as the sequence (P62937 whole entry) above

IC50 (KRAS G13D) [nM]	IC50 (KRAS G12C) [nM]	IC50 (KRAS G12V) [nM]	IC50 (NRAS G12C) [nM]	IC50 (KRAS WT) [nM]	IC50 (KRAS G12S) [nM]	IC50 (KRAS G13C) [nM]	IC50 (KRAS G12D) [nM]	IC50 (NRAS Q61K) [nM]	IC50 (NRAS WT) [nM]	IC50 (NRAS Q61R) [nM]	IC50 (KRAS Q61H) [nM]	IC50 (NCI-H358 (K-Ras G12C)) [nM]	SMILES	IC50 (Capan-1 (K-Ras G12V)) [nM]
100 to 1000	10 to 100	100 to 1000	10 to 100	100 to 1000	100 to 1000	100 to 1000	1000 to 10000	10 to 100	100 to 1000	100 to 1000	100 to 1000	10 to 100	CCn1c(-c2cccnc2[C@H](C)OC)c2c3cc(ccc31)-c1csc(n1)[C@@H](O)[C@H](NC(=O)[C@H](C(C)C)N(C)C(=O)N1CC(N(C)C)C1)C(=O)N1CCC[C@H](N1)C(=O)OCC(C)(C)C2 (atropisomer, axis not shown) [Example A489]	100 to 1000
100 to 1000	10 to 100	100 to 1000	10 to 100	100 to 1000	100 to 1000	100 to 1000	1000 to 10000	10 to 100	100 to 1000	100 to 1000	10 to 100	10 to 100	CCn1c(-c2cccnc2[C@H](C)OC)c2c3cc(ccc31)-c1csc(n1)C[C@H](NC(=O)[C@H](C(C)C)N(C)C(=O)N1CC3(CC(O)C3)C1)C(=O)N1CCC[C@H](N1)C(=O)OCC(C)(C)C2 (atropisomer, axis not shown) [Example A510]	10 to 100
100 to 1000	100 to 1000	100 to 1000	100 to 1000	100 to 1000	100 to 1000	100 to 1000	100 to 1000	10 to 100	100 to 1000	10 to 100	10 to 100	10 to 100	CCn1c(-c2cccnc2[C@H](C)OC)c2c3cc(ccc31)-c1csc(n1)C[C@H](NC(=O)[C@H](C(C)C)N(C)C(=O)N1CCCC13CCOCC3)C(=O)N1CCC[C@H](N1)C(=O)OCC(C)(C)C2 (atropisomer, axis not shown) [Example A520]	10 to 100
100 to 1000	10 to 100	100 to 1000	10 to 100	100 to 1000	100 to 1000	100 to 1000	100 to 1000	10 to 100	100 to 1000	100 to 1000	10 to 100	10 to 100	CCn1c(-c2cccnc2[C@H](C)OC)c2c3cc(ccc31)-c1csc(n1)C[C@H](NC(=O)[C@H](C(C)C)N(C)C(=O)N1CC3(CC3)C1)C(=O)N1CCC[C@H](N1)C(=O)OCC(C)(C)C2 (atropisomer, axis not shown) [Example A523]	10 to 100
100 to 1000	10 to 100	10 to 100	10 to 100	10 to 100	10 to 100	10 to 100	100 to 1000	10 to 100	10 to 100	10 to 100	10 to 100	< 10	CCn1c(-c2cc(N3CCN(C)CC3)cnc2[C@H](C)OC)c2c3cc(ccc31)-c1csc(n1)C[C@H](NC(=O)[C@H](C1CCCC1)N(C)C(=O)N(C)C)C(=O)N1CCC[C@H](N1)C(=O)OCC(C)(C)C2 (atropisomer, axis not shown) [Example A526]	< 10

Further lines, the compound ahead of its results:

SMILES	IC50 (KRAS G13D) [nM]	IC50 (KRAS G12C) [nM]	IC50 (KRAS G12V) [nM]	IC50 (NRAS G12C) [nM]	IC50 (KRAS WT) [nM]	IC50 (KRAS G12S) [nM]	IC50 (KRAS G13C) [nM]	IC50 (KRAS G12D) [nM]	IC50 (NRAS Q61K) [nM]	IC50 (NRAS WT) [nM]	IC50 (NRAS Q61R) [nM]	IC50 (KRAS Q61H) [nM]	IC50 (NCI-H358 (K-Ras G12C)) [nM]	IC50 (Capan-1 (K-Ras G12V)) [nM]
CCn1c(-c2cccnc2[C@H](C)OC)c2c3cc(ccc31)-c1csc(n1)C[C@H](NC(=O)[C@H](C(C)C)N(C)C(=O)N1CC([C@@H](C)NC)C1)C(=O)N1CCC[C@H](N1)C(=O)OCC(C)(C)C2 (atropisomer, axis not shown) [Example A488]	100 to 1000	10 to 100	100 to 1000	10 to 100	100 to 1000	100 to 1000	100 to 1000	100 to 1000	10 to 100	100 to 1000	100 to 1000	10 to 100	10 to 100	100 to 1000
CCn1c(-c2cccnc2[C@H](C)OC)c2c3cc(ccc31)-c1csc(n1)C[C@H](NC(=O)[C@H](C(C)C)N(C)C(=O)N1CCC3(CN(C)C3)C1)C(=O)N1CCC[C@H](N1)C(=O)OCC(C)(C)C2 (atropisomer, axis not shown) [Example A503]	100 to 1000	10 to 100	100 to 1000	10 to 100	10 to 100	10 to 100	100 to 1000	100 to 1000	10 to 100	10 to 100	10 to 100	10 to 100	10 to 100	10 to 100
CCn1c(-c2cc(C3CCN(C)CC3)cnc2[C@H](C)OC)c2c3cc(ccc31)-c1csc(n1)C[C@H](NC(=O)[C@H](C(C)C)N(C)C(=O)N1CCOCC1)C(=O)N1CCC[C@H](N1)C(=O)OCC(C)(C)C2 (atropisomer, axis not shown) [Example A505]	100 to 1000	10 to 100	100 to 1000	10 to 100	10 to 100	100 to 1000	100 to 1000	100 to 1000	10 to 100	10 to 100	10 to 100	10 to 100	< 10	< 10
CCn1c(-c2cccnc2[C@H](C)OC)c2c3cc(ccc31)-c1csc(n1)C[C@H](NC(=O)[C@H](C(C)C)N(C)C(=O)N1CC3(CCCO3)C1)C(=O)N1CCC[C@H](N1)C(=O)OCC(C)(C)C2 (atropisomer, axis not shown) [Example A522]	1000 to 10000	100 to 1000	100 to 1000	100 to 1000	100 to 1000	100 to 1000	100 to 1000	1000 to 10000	10 to 100	100 to 1000	100 to 1000	100 to 1000	10 to 100	100 to 1000
